Where two headings read alike, the source gives them in different places.
Key:
MNK2a = MNK2a (Homo sapiens (Human), UniProt Q9HBH9); assay: MNK2a in vitro kinase assay (Assay 2), ADP-Glo; type: biochemical
Description: B. MNK2a In Vitro Kinase Assay (Assay 2)

MNK1a = MNK1a (Homo sapiens (Human), UniProt Q9BUB5); assay: MNK1 in vitro kinase assay (Assay 3), Z'-LYTE; type: biochemical; conditions: for inhibition at 1 µM: compound concentration of 1 μM, read-out: MNK1 % INH
Description: C. MNK1 In Vitro Kinase Assay (Assay 3)
MNK1 Data can be obtained from the MNK1 Z′-LYTE® assay. The MNK1 Z′-LYTE® screening protocol and assay conditions are also described on www.invitrogen.com.
The assay is described as follows:
The Z′-LYTE® biochemical assay employs a fluorescence-based, coupled-enzyme format and is based on the differential sensitivity of phosphorylated and non-phosphorylated peptides to proteolytic cleavage. The peptide substrate is labeled with two fluorophores—one at each end—that make up a FRET pair.
In the primary reaction, the kinase transfers the gamma-phosphate of ATP to a single tyrosine, serine or threonine residue in a synthetic FRET-peptide. In the secondary reaction, a site-specific protease recognizes and cleaves non-phosphorylated FRET-peptides. Phosphorylation of FRET-peptides suppresses cleavage by the Development Reagent. Cleavage disrupts FRET between the donor (i.e., coumarin) and acceptor (i.e., fluorescein) fluorophores on the FRET-peptide, whereas uncleaved, phosphorylated FRET-peptides maintain FRET. A ratiometric method, which calculates the ratio (the Emission Ratio) of donor emission to acceptor emission after excitation of the donor fluorophore at 400 nm, is used to quantitate reaction progress, as shown in the equation below.
The 2×MKNK1 (MNK1) mixture is prepared in 50 mM HEPES pH 7.5, 0.01% BRIJ-35, 10 mM MgCl2, 4 mM MnCl2, 1 mM EGTA, 2 mM DTT.
The Test Compounds are screened in 1% DMSO (final) in the well.
All Peptide/Kinase Mixtures are diluted to a 2× working concentration in the MNK1 Kinase Buffer.
All ATP Solutions are diluted to a 4× working concentration in Kinase Buffer (50 mM HEPES pH 7.5, 0.01% BRIJ-35, 10 mM MgCl2, 1 mM EGTA).
Development Reagent Solution:
The Development Reagent is diluted in Development Buffer
1. 2.5 μL—4× Test Compound
2. 5 μL—2× Peptide/Kinase Mixture
5. 60-minute Kinase Reaction incubation at room temperature
6. 5 μL—Development Reagent Solution
8. 60-minute Development Reaction incubation at room temperature
9. Read on fluorescence plate reader and analyze the data
Control C0%=Average Coumarin emission signal of the 0% Phos. Control F100%=Average Fluorescein emission signal of the 100% Phos. Control F0%=Average Fluorescein emission signal of the 0% Phos. Control Graphing Software
SelectScreen® Kinase Profiling Service uses XLfit from IDBS. […] The activity of MNK proteins can be assayed also by other in vitro kinase assay formats. […] In general, MNK kinase assays can be performed such that a MNK substrate such as a protein or a peptide, which may or may not include modifications as further described below, or others are phosphorylated by MNK proteins having enzymatic activity in vitro. The activity of a candidate agent can then be determined via its ability to decrease the enzymatic activity of the MNK protein. The kinase activity may be detected by change of the chemical, physical or immunological properties of the substrate due to phosphorylation.

Chain of MNK2a (Q9HBH9 whole entry): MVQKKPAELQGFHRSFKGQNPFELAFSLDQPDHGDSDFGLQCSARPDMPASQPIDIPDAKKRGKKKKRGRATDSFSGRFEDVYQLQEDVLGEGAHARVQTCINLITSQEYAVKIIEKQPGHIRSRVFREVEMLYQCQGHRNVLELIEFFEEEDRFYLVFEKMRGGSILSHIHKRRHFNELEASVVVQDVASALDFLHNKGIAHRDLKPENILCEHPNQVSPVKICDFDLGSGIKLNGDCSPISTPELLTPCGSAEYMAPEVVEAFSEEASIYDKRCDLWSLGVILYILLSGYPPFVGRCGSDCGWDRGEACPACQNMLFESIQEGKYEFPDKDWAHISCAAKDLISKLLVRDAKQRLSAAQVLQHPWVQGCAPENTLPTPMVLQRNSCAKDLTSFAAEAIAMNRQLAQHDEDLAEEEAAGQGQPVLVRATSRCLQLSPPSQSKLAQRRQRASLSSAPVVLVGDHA
Chain of MNK1a (Q9BUB5 other isoform, or with tags, fused parts or gaps): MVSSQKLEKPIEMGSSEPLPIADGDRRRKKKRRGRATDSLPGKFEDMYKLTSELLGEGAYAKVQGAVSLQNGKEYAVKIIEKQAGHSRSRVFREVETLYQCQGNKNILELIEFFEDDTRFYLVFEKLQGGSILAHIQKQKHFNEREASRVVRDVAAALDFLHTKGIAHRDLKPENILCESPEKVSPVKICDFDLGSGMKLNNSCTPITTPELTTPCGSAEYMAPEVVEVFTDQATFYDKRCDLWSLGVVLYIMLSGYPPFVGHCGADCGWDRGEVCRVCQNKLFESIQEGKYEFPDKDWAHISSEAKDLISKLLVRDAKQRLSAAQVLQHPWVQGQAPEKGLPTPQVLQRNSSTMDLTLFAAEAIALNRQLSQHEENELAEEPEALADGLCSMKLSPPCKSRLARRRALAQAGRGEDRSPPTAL

SMILES | IC50 (MNK2a; assay 2, read-out: MNK2 IC50) [nM] | further results
COc1cc(N=S2(=O)CCC(O)CC2)cc2ncnc(Nc3ccc(F)cc3O[C@H]3COC[C@H]3O)c12 (mixture of isomers) [Example 9.25] | 26 | –
COc1cc(N=S(C)(=O)c2ccncc2)cc2ncnc(Nc3ccc(F)cc3O[C@H]3COC[C@H]3O)c12 (mixture of isomers) [Example 9.27] | 86 | –
CO[C@@H]1COC[C@@H]1Oc1cc(F)ccc1Nc1ncnc2cc(N=S3(=O)CCCC3)cc(Cl)c12 (racemic) [Example 1.6] | – | IC50 (MNK1a): 45 nM
CO[C@H]1COC[C@H]1Oc1ncccc1Nc1ncnc2cc(N=S(C)(C)=O)cc(C)c12 (racemic) [Example 2.1] | – | inhibition at 1 µM (MNK1a): 88%
CO[C@H]1COC[C@H]1Oc1ncccc1Nc1ncnc2cc(N=S3(=O)CCCC3)cc(C)c12 (racemic) [Example 2.2] | 6 | –
Cc1cc(N=S2(=O)CCCC2)cc2ncnc(Nc3cccnc3O[C@@H]3COC[C@@H]3O)c12 (racemic) [Example 2.3] | – | inhibition at 1 µM (MNK1a): 102%
Cc1cc(N=S(C)(C)=O)cc2ncnc(Nc3ccc(F)cc3O[C@H]3COC[C@H]3O)c12 (racemic) [Example 2.7] | – | inhibition at 1 µM (MNK1a): 97%
CO[C@@H]1COC[C@@H]1Oc1cc(F)ccc1Nc1ncnc2cc(N=S(C)(C)=O)cc(C)c12 (racemic) [Example 2.9] | – | IC50 (MNK2a): 4 nM
Cc1cc(N=S(C)(C)=O)cc2ncnc(Nc3cccnc3O[C@H]3COC[C@H]3OCCF)c12 (racemic) [Example 2.26] | 3 | –
O=S1(=Nc2cc(F)c3c(Nc4cccnc4O[C@H]4COC[C@H]4O)ncnc3c2)CCCC1 (racemic) [Example 2.30] | – | inhibition at 1 µM (MNK1a): 97%
Cc1cc(N=S2(=O)CCCCC2)cc2ncnc(Nc3cccnc3O[C@H]3COC[C@H]3O)c12 (racemic) [Example 2.31] | – | inhibition at 1 µM (MNK1a): 94%
Cc1cc(N=S2(=O)CCC2)cc2ncnc(Nc3cccnc3O[C@H]3COC[C@H]3O)c12 (racemic) [Example 2.32] | – | inhibition at 1 µM (MNK1a): 97%
O=S1(=Nc2cc(F)c3c(Nc4cccnc4O[C@H]4COC[C@H]4O)ncnc3c2)CCC1 (racemic) [Example 2.33] | – | inhibition at 1 µM (MNK1a): 91%
CO[C@@H]1COC[C@H]1Oc1ncccc1Nc1ncnc2cc(N=S(C)(C)=O)cc(C)c12 (racemic) [Example 2.34] | – | inhibition at 1 µM (MNK1a): 70%
CO[C@@H]1COC[C@H]1Oc1ncccc1Nc1ncnc2cc(N=S3(=O)CCC3)cc(C)c12 (racemic) [Example 2.35] | – | inhibition at 1 µM (MNK1a): 97%
CO[C@@H]1CC[C@@H](Oc2cc(F)ccc2Nc2ncnc3cc(N=S(C)(C)=O)cc(C)c23)CO1 (racemic) [Example 2.63] | – | inhibition at 1 µM (MNK1a): 102%
Cc1cc(N=S2(=O)CCC2)cc2ncnc(Nc3ccc(F)cc3O[C@@H]3COC[C@@H]3O)c12 (racemic) [Example 2.67] | – | inhibition at 1 µM (MNK1a): 100%
Cc1cc(N=S(C)(=O)C2CC2)cc2ncnc(Nc3ccc(F)cc3O[C@@H]3COC[C@@H]3O)c12 (mixture of isomers) [Example 2.72] | – | inhibition at 1 µM (MNK1a): 98%
O=S1(=Nc2cc(F)c3c(Nc4ccc(F)cc4O[C@@H]4COC[C@@H]4O)ncnc3c2)CCC1 (racemic) [Example 2.87] | 10 | –
CS(=O)(=Nc1cc(F)c2c(Nc3ccc(F)cc3O[C@@H]3COC[C@@H]3O)ncnc2c1)c1cccnc1 (mixture of isomers) [Example 2.89] | 51 | –
CC(C)S(C)(=O)=Nc1cc(F)c2c(Nc3ccc(F)cc3O[C@@H]3COC[C@@H]3O)ncnc2c1 (mixture of isomers) [Example 2.90] | 70 | –
CS(=O)(=Nc1cc(F)c2c(Nc3ccc(F)cc3O[C@@H]3COC[C@@H]3O)ncnc2c1)C1CC1 (mixture of isomers) [Example 2.91] | 106 | –
O=S1(=Nc2cc(F)c3c(Nc4ccc(F)cc4O[C@@H]4COC[C@@H]4O)ncnc3c2)CCC(O)CC1 (mixture of isomers) [Example 2.94] | 39 | –
CS(=O)(=Nc1cc(F)c2c(Nc3ccc(F)cc3O[C@@H]3COC[C@@H]3O)ncnc2c1)c1ccccc1 (mixture of isomers) [Example 2.95] | 54 | –

SMILES | IC50 (MNK2a; assay 2, read-out: MNK2 IC50) [nM] | further results
CC1CCS(=O)(=Nc2cc(F)c3c(Nc4ccc(F)cc4O[C@@H]4COC[C@@H]4O)ncnc3c2)C1 (mixture of isomers) [Example 2.96] | 9 | –
Cc1cc(N=S(C)(C)=O)cc2ncnc(Nc3ccc(F)cc3O[C@@H]3C[C@@H]4CC[C@H]3O4)c12 (racemic) [Example 2.98] | 6 | –
Cc1cc(N=S(C)(C)=O)cc2ncnc(Nc3ccc(F)cc3O[C@H]3C[C@@H]4CO[C@H]3C4)c12 (racemic) [Example 2.99] | 3 | –
Cc1cc(N=S(C)(C)=O)cc2ncnc(Nc3ccc(F)cc3O[C@@H]3COC[C@H]3F)c12 (racemic) [Example 2.100] | 25 | –
Cc1cc(N=S2(=O)CCCC2)cc2ncnc(Nc3ccc(F)cc3O[C@@H]3COC[C@H]3F)c12 (racemic) [Example 2.101] | 6 | –
Cc1cc(N=S2(=O)CCC2)cc2ncnc(Nc3ccc(F)cc3O[C@@H]3COC[C@@H]3O)c12 (single isomer, unassigned) [Example 1.36] | – | inhibition at 1 µM (MNK1a): 98%
CS(C)(=O)=Nc1cc(Cl)c2c(Nc3ccc(F)cc3O[C@H]3COC[C@@H]3O)ncnc2c1 [Example 1.8] | 2 | –
CS(C)(=O)=Nc1cc(C2CC2)c2c(Nc3ccc(F)cc3O[C@H]3COC[C@@H]3O)ncnc2c1 [Example 1.10] | 21 | –
Cc1cc(N=S2(=O)CCCC2)cc2ncnc(Nc3ccc(F)cc3O[C@H]3CN(C)C[C@@H]3O)c12 [Example 2.61] | 12 | –
CS(=O)(=Nc1cc(F)c2c(Nc3ccc(F)cc3O[C@H]3COC[C@@H]3O)ncnc2c1)c1cccnc1 (some centres unmarked) [Example 2.69] | 22 | –
CS(=O)(=Nc1cc(F)c2c(Nc3ccc(F)cc3O[C@H]3COC[C@@H]3O)ncnc2c1)C1CC1 (some centres unmarked) [Example 2.73] | 20 | –
CS(=O)(=Nc1cc(F)c2c(Nc3ccc(F)cc3O[C@H]3COC[C@@H]3O)ncnc2c1)c1ccccc1 (some centres unmarked) [Example 2.86] | 13 | –
CS(=O)(=Nc1cc(F)c2c(Nc3ccc(F)cc3O[C@H]3COC[C@@H]3O)ncnc2c1)C1CCOCC1 (some centres unmarked) [Example 2.88] | 32 | –
CS(=O)(=Nc1cc(F)c2c(Nc3ccc(F)cc3O[C@H]3COC[C@@H]3O)ncnc2c1)c1ccncc1 (some centres unmarked) [Example 2.97] | 71 | –
COc1cc(N=S2(=O)CCC2)cc2ncnc(Nc3ccc(Cl)nc3O[C@H]3COC[C@@H]3O)c12 [Example 9.5] | 1 | –
COc1cc(N=S(C)(=O)C2CCOCC2)cc2ncnc(Nc3ccc(F)cc3O[C@H]3COC[C@@H]3O)c12 (some centres unmarked) [Example 9.11] | 15 | –
COc1cc(N=S(C)(=O)C2CC2)cc2ncnc(Nc3ccc(F)cc3O[C@H]3COC[C@@H]3O)c12 (some centres unmarked) [Example 9.22] | 18 | –
COc1cc(N=S2(=O)CCC(O)CC2)cc2ncnc(Nc3ccc(F)cc3O[C@H]3COC[C@@H]3O)c12 (some centres unmarked) [Example 9.26] | 7 | –
COc1cc(N=S(C)(=O)c2ccccc2)cc2ncnc(Nc3ccc(F)cc3O[C@H]3COC[C@@H]3O)c12 (some centres unmarked) [Example 9.28] | 13 | –
COc1cc(N=S(C)(=O)c2ccncc2)cc2ncnc(Nc3ccc(F)cc3O[C@H]3COC[C@@H]3O)c12 (some centres unmarked) [Example 9.30] | 43 | –
Cc1cc(N=S2(=O)CCC2)cc2ncnc(Nc3ccc(F)cc3OC3CCC(O)OC3)c12 (centres unmarked) [Example 12.1] | 3 | –
Cc1cc(N=S(C)(C)=O)cc2ncnc(Nc3ccc(F)cc3OC3CCC(O)OC3)c12 (centres unmarked) [Example 12.2] | 3 | –
CO[C@H]1COC[C@H]1Oc1cc(F)ccc1Nc1ncnc2cc(N=S(C)(C)=O)cc(C)c12 [Example 14.7] | 7 | –
